Laboratory results taken from patent publication US8455450B2, “Methods for obtaining a therapeutically effective amount of hematopoietic precursor cells and long term engraftment thereof” (Biokine Therapeutics Ltd., priority 2006, dated 2013).
Bridge positions count the residues as written; N and C are the ends. Square brackets hold non-standard residues; d marks the D form. Peptide text beside a SMILES is read from it. * marks the point of attachment. 2Nal = N[C@@H](Cc1ccc2ccccc2c1)C(=O)O; Benzoyl(4-F) = O=C(c1ccc(F)cc1)*; Cit = NC(=O)NCCC[C@H](N)C(=O)O

What was measured:
[1] = system: Streptococcus A; assay: Survival of mice upon bacterial infection in a chemotherapy model; assay type: in vivo; details: CPM 250 mg/kg total; Streptococcus A 10^8/mouse s.c. day 0; 4F-benzoyl-TN14003 5 mg/kg s.c., G-CSF 5 μg/mouse
Experimental: Mice received a total dose of 250 mg/kg CPM by two 0.25 ml intra-peritoneal injections scheduled at day −5 (150 mg/kg) and day −2 (100 mg/kg). Mice were subcutaneously treated with 0.2 ml of 4F-benzoyl-TN14003 (5 mg/kg), alone or in combination with G-CSF (5 μg/mouse), at the time points indicated in FIG. 15A. On day 0, Streptococcus A were subcutaneously injected (10^8/mouse) and the mice were then treated as detailed in FIG. 15A.

[2] = system: GR-1 positive cells, MNC and progenitors; assay: Cell counts in a bone marrow transplantation model; assay type: in vivo, mice; details: 900 Rad irradiation, BM transplant 5×10^6/mouse; 5 mg/kg s.c.
Source text: Mice received lethal total body irradiations of 900 Rad and were subsequently transplanted with BM cells from donor healthy mice (5×10^6/mouse). […] Flow cytometery was used to assess the number of cells in the blood and bone marrow (BM), and distinguish between the different populations. Cells were gated according to forward scatter and side scatter to exclude dead cells and to determine granulocytes (GR-1 positive cells) and mononuclear cells (MNC).

[3] = system: white-blood-cells (WBC); assay type: in vivo
[4] = system: BM cells on stromal cells (14F1.1); assay: In vitro production of progenitors and mature cells from BM cells seeded on stromal cells (14F1.1); assay type: cell-based
Experimental: More specifically, the number of colonies was assayed by collecting the cells (10^5/plate) 4 days after treatment form the treated and control (untreated) plates, and evaluating the number of progenitor cells using a colony-forming cell assay. Burst forming units erythrocyte (BFU-E), colony forming units granulocyte-macrophage (CFU-GM), colony forming units megakaryocytes (CFU-M), and colony forming units granulocyte-erythrocyte-monocyte-macrophage (CFU-GEMM) were assayed by plating the cells in Iscove's-modified Dulbecco's Medium (IMDM) containing 1% methylcellulose, 15% FBS, 1% bovine serum albumin (BSA), 3 U/mL rh EPO, […] 2-mercaptoethanol, 2 mM L-glutamine, 50 ng/mL rmSCF, 10 ng/mL rmIL-3, […] rh Insulin, 10 ng/mL rh IL-6, and […] Human Transferrin (Methocult GF M3434; StemCell Technologies Inc.). The cultures were incubated at 37° C. in a humidified atmosphere containing 5% CO2. Seven days later, typical colonies were visually scored by morphologic criteria using a light microscope and the frequency of CFU was calculated. Staining colonies with benzidine dihydrochloride (Sigma, Israel) was used to localize hemoglobin-containing cells.

[5] = system: proerythroblast cells; assay: Proerythroblasts in blood, FACS with anti-Ter-119; assay type: in vivo, C57BL/6 mice; details: 5 mg/kg s.c.; 2 hours
Experimental: To assess the number of cells in blood and BM, and to distinguish between the different populations, FACScan flow cytometer was used. Cells derived from these organs were gated according to forward scatter and side scatter to exclude dead cells and to determine granulocytes, mononuclear cells and activated macrophage populations. The number of each cell population was counted. Cells were also stained in 0.1 ml FACS buffer with fluorescence antibodies directed against Gr-1, CD3, mac-1, F4/80, Nk1.1, B220 and Ter-119 molecules or matched isotype controls (all from eBiosience, San Diego, Calif.) for 30 min and washed with FACS buffer.
C57BL/6 mice were s.c. injected with 5 mg/kg 4F-benzoyl-TN14003. 2 hours later blood was obtained and the number of proerythroblast cells was evaluated by FACS following staining with anti-Ter-119 (FITC). Data are expressed as average±SD of five mice/group.

[6] = system: PC3 cells; assay: MIP3α secretion by PC3 prostate cells (ELISA); assay type: cell-based
Source text: A PC3 prostate cell line that overexpresses high levels of CXCR4 was generated. […] FIG. 1A presents FACS histograms of PC3 cells (left panel) and a single cell clone with stable overexpression of CXCR4, GFP and luc genes (PC3-CXCR4.5, right panel) that were stained for the control (IgG2a-PE, full histograms) and CXCR4 (IgG2a-12G5, empty histograms) antibodies.
In this example, regulation of the chemokine MIP3α (macrophage inflammatory protein 3α) was examined. […] In FIG. 1B, PC3 (left panel) and PC3-CXCR4.5 (right panel) cells were stimulated with the indicated concentrations of CXCL12 for 48 hours and MIP3α secretion was assessed by ELISA. The results represent the average of triplicates±STDEV.
The effects of the CXCR4 antagonist AMD3100 and of 4F-benzoyl-TN14003 (4FB-TN14003), hitherto known as a CXCR4 antagonist, on MIP3α secretion were further tested. […] In FIG. 10, CXCR4 signaling in PC3 (left panel) and PC3-CXCR4.5 (right panel) cells was inhibited with anti-CXCL12 antibodies (αCXCL12) and Pertussis toxin (PTX) treatments alone or in combination with CXCL12, as indicated. Secretion of MIP3α was assessed by ELISA. The results represent the average of triplicates±STDEV.

[7] = 5 mg/kg s.c. 4F-benzoyl-TN14003 or AMD3100, 2 h, G-CSF 2.5 μg s.c. twice a day for 4 days, combination 18 h after last G-CSF
[8] = peak at 10 mg/kg s.c., 2 hours post-injection

In the case of `N=C(N)NCCC[C@H](NC(=O)[C@@H]1CSSC[C@H](NC(=O)[C@H](Cc2ccc3ccccc3c2)NC(=O)[C@H](CCCNC(=N)N)NC(=O)[C@H](CCCNC(=N)N)NC(=O)c2ccc(F)cc2)C(=O)N[C@@H](Cc2ccc(O)cc2)C(=O)N[C@@H](CCCNC(N)=O)C(=O)N[C@@H](CCCCN)C(=O)N[C@H](CCCCN)C(=O)N2CCC[C@H]2C(=O)N[C@@H](Cc2ccc(O)cc2)C(=O)N[C@@H](CCCNC(=N)N)C(=O)N[C@@H](CCCNC(N)=O)C(=O)N1)C(N)=O` [4F-benzoyl-TN14003, 4F-benzoly-Arg-Arg-Nal-Cys-Tyr-Cit-Lys-DLys-Pro-Tyr-Arg-Cit-Cys-Arg-NH2] ({Benzoyl(4-F)}-RR[2Nal]CY[Cit]K[dK]PYR[Cit]CR-NH2; disulfide 4-13), the “survival of mice after Streptococcus A infection” value [1] is reported as “save the mice from death induced by the pathogen”, the “GR-1 and MNC cell counts in the BM” value [2] is reported as “stimulate GR-1 (left panel) and MNC (right panel) production in the BM” and the “GR-1 positive cells in the blood” value [2] is reported as “mobilize GR-1 positive cells and reduce neutropenia”. The “progenitor cell counts (total, CFU-GM, CFU-M, BFU-E, CFU-GEMM) in the BM” value [2] was “stimulate production of various progenitors in the BM”, the “MNCs in the blood, full return to the baseline level” value ([3]; 5 mg/kg s.c.) was 4 h and the “activated macrophages in the blood, return to the baseline level” value ([3]; 5 mg/kg s.c.) was 24 h. For the same molecule, the “activated macrophages in the blood, time of peak” value ([3]; 5 mg/kg s.c.) was 1 h, the “neutrophils in the blood, decrease to the baseline level” value ([3]; 5 mg/kg s.c.) was 24 h and the “neutrophils in the blood, time of peak” value ([3]; 5 mg/kg s.c.) was 1 to 2 h. The “Activated macrophages, fold elevation of cell counts from control” value [3, 7] was 4.2 fold, the “MNC, fold elevation of cell counts from control” value [3, 7] was 2.3 fold and the “Neutrophils, fold elevation of cell counts from control” value [3, 7] was 6.1 fold. The “mononuclear cells (MNCs) in the blood, fold elevation from control” value ([3]; 5 mg/kg s.c., after 30 minutes) was 2 fold, the “number of neutrophils in the blood, fold change from control at peak” value ([3]; 5 mg/kg s.c., peak after 1 to 2 hours) was over 12 fold and the “number of WBC in blood, fold elevation compared to control mice (peak of dose response)” value ([3]; dose 5 mg/kg s.c., 2 hours post-injection) was 2.5 fold. For the same molecule, the “number of white blood cells within the BM” value ([3]; intact mice, 5 mg/kg s.c.) was “no changes were observed”, the “MNCs in blood, fold change from control” value [3, 8] was 3.5 fold and the “absolute number of neutrophils in blood, fold change compared to control” value [3, 8] was about 8 fold. For the same molecule, the “activated macrophages in blood, fold change from control” value [3, 8] was 6 fold, the “total WBC in blood, full return to the baseline level” value ([3]; single dose 5 mg/kg s.c.) was 24 h and the “number of total WBC in blood, fold change from control” value ([3]; single dose 5 mg/kg s.c., after 30 minutes) was 2 fold. The “mobilization of T cells, B cells and monocytes (FACS)” value ([3]; staining CD3, B220, Mac-1) was “had an effect on the mobilization of T cells, B cells and monocytes”, the “mobilization of NK cells (FACS)” value ([3]; staining Nk1.1) was “had no effect on the mobilization of NK cells” and the “differentiation and proliferation of BM cells on stromal cells (micrographs)” value ([4]; representative experiment, FIG. 17E) was “differentiating and proliferating”. The “production of GR-1 and Ter119 positive cells and progenitors” value ([4]; stromal cells (14F1.1) seeded with BM cells, 4F-benzoyl-TN14003 10 microgram/ml, G-CSF 100 ng/ml, 4 days) was “stimulated the production of GR-1 and Ter119 positive cells as well as progenitors”, the “number of proerythroblasts (Ter119) in blood, fold elevation from the control level” value [5] was 3.2 fold and the MIP3α secretion [6] was “induced in both cell lines MIP3α secretion in an agonist manner”.
